The source of these data is patent US20100204149A1, “USE OF OCTREOTIDE AS A THERAPEUTIC AGENT” (priority 2007, published 2010).

This test has as its system drug-resistant Mycobacterium tuberculosis. The conditions noted are these: 5 micrograms per ml.

SMILES strings stand for the structures.

Take `C[C@@H](O)[C@@H]1NC(=O)[C@H](CCCCN)NC(=O)[C@@H](Cc2c[nH]c3ccccc23)NC(=O)[C@H](Cc2ccccc2)NC(=O)[C@@H](NC(=O)[C@H](N)Cc2ccccc2)CSSC[C@@H](C(=O)N[C@H](CO)[C@@H](C)O)NC1=O` [Octreotide, H-D-Phe-Cys-Phe-D-Trp-Lys-Thr-Cys-L-threoninol]: the “% inhibition” value came to 100.0%.

Usually % inhibition stands for the relative decrease from the control value, in per cent. A higher % inhibition goes with a response far below the control.
